Reference: PMC3555856, “In vitro α-glucosidase inhibitory activity of phenolic constituents from aerial parts of Polygonum hyrcanicum” (DARU Journal of Pharmaceutical Sciences, 2012)
Where two headings read alike, the source gives them in different places.

Legend:
[1] = FRAP assay (ferric-reducing ability); conditions: 37°C, 10 minutes, 593 nm
Experimental: Antioxidant activities of plant extracts were evaluated by monitoring their ferric-reducing abilities. Freshly prepared FRAP reagent contained 5 ml FeCl3 (20 mM) plus 5 ml of a 10 mM TPTZ solution in 40 mM HCl and 50 ml of 300 mM acetate buffer (pH = 3.6). One hundred microliters of the samples, dissolved in methanol at various concentrations, were mixed with 3 ml FRAP reagent and incubated at 37°C for 10 minutes; the absorptions at 593 nm were recorded. A calibration curve was generated in the range of 125–750 μM ferrous sulfate (FeSO4.7H2O). Vitamin E was used as a positive control and the results were expressed as mmol ferrous ion equivalent per gram of extracts.

[2] = DPPH free radical scavenging activity; conditions: absorbance at 517 nm after 30 minutes
Experimental: The antioxidant activities of the extracts were determined with the DPPH assay according to an established protocol. Extract solutions of 500, 250, 100, and 50 μg/ml were prepared in methanol. Each test tube contained 1 ml of the samples and 2 ml freshly prepared DPPH solution of 40 μg/ml in methanol. […] Absorbance of the mixtures were recorded at 517 nm after 30 minutes, against the blank covets of DPPH solution. Vitamin E was used as a positive control. All samples were assayed in triplicate and IC50 values were calculated.

[3] = target: T1, α-glucosidase (EC 3.2.1.20, from baker's yeast) (Saccharomyces cerevisiae, UniProt P53341); experiment: biochemical; conditions: pH 6.9, 37°C
T1 construct: purchased Sigma-Aldrich Chemie (Germany)
T1 sequence (P53341 whole entry): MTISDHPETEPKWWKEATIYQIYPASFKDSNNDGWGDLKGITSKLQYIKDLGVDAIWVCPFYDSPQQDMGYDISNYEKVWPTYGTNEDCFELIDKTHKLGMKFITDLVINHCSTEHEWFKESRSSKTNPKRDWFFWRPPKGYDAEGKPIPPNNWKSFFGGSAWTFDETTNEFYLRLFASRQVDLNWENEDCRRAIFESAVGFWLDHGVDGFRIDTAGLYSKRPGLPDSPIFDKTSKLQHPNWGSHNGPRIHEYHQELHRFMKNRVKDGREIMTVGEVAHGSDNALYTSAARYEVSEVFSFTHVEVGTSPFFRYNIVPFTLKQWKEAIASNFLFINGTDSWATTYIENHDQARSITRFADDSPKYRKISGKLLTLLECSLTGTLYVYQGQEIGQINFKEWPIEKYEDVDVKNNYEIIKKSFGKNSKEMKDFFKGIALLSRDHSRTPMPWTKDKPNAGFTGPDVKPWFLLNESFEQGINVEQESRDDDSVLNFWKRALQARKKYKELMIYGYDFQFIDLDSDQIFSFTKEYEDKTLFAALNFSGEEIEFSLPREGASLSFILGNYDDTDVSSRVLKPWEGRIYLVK
Experimental: Column chromatography was carried out using silica gel (230–400 mesh) obtained from Merck (Germany), RP-18 (230–400 mesh) and Sephadex LH-20 procured from Fluka (Switzerland). Pre-coated silica gel 60 F254 plates and silica gel 60 RP-18 F254S plates (Merck, Germany) were used for TLC. Spots were observed under UV at 254 and 366 nm and spraying with anisaldehyde-H2SO4 reagent (Sigma-Aldrich Chemie, Germany) and heating at 120°C for 5 min. HPLC separations were performed on a Knauer Wellchrom system connected to a photodiode array detector (Smart line system, Germany). ^1H and ^13C NMR spectra were measured on a Bruker Avance DRX 500 spectrometer operating at 500 MHz for ^1H and 125 MHz for ^13C using a 5 mm PABBO probehead. α-glucosidase (EC 3.2.1.20, from baker’s yeast, 77 U/mg), p-nitrophenyl-α-d-glucopyranoside, vitamin E 97% and 2, 2-diphenyl-picrylhydrazyl (DPPH) were obtained from Sigma-Aldrich Chemie (Germany). Sodium carbonate, FeCl3, sodium acetate, ferrous sulfate [FeSO4.7H2O], gallic acid, 2, 4, 6-tripyridyl-s-triazine (TPTZ) solution, and Folin-Ciocalteu reagent were all obtained from Merck (Germany).
α-Glucosidase inhibitory activities were evaluated according to the chromogenic method described by McCue et al. (2005), with some modifications. The enzyme solution contained 20 μl α-glucosidase (0.5 unit/ml) and 120 μl 0.1 M phosphate buffer (pH 6.9). p-Nitrophenyl-α-D-glucopyranoside (5 mM) in the same buffer (pH 6.9) was used as a substrate solution. Ten microliters of test samples, dissolved in DMSO at various concentrations, were mixed with enzyme solution in microplate wells and incubated for 15 min at 37°C. Twenty microliters of substrate solution were added and incubated for an additional 15 min. The reaction was terminated by adding 80 μl of 0.2 M sodium carbonate solution. Absorbance of the wells was measured with a microplate reader at 405 nm, while the reaction system without plant extracts was used as control. […] Each experiment was conducted in triplicate. The enzyme inhibitory rates of samples were calculated as follows:
Inhibition%=[(control absorption-sample absorption)/control absorption)]×100.
The IC50 values of samples were calculated and reported as the mean ± standard deviation (SD) of three experiments.

[4] = α-Glucosidase inhibitory activity IC50, mean ± SD of three experiments
[5] = mean ± SD of three experiments, read-out: α-Glucosidase inhibitory activity IC50

IC50 [3, 5] | Compound | other results
– | vitamin E | FRAP assay [1]: 2.40 ± 0.76 mmol ferrous ion equivalent/g; FRAP assay ([1]; listed as vitamin E): 2.4 mmol ferrous ion equivalent/g; DPPH assay IC50 [2]: 14.12 ± 0.9 µg/mL; DPPH assay IC50 ([2]; listed as vitamin E): 14.1 µg/mL
– | O=c1c(O)c(-c2cc(O)c(O)c(O)c2)oc2cc(O)cc(O)c12 [Compound 2, myricetin] | IC50 [3, 4]: 1.3 ± 0.6 µM
5.8 ± 2.8 µM | CC(=O)OC[C@@H]1O[C@@H](Oc2c(-c3cc(O)c(O)c(O)c3)oc3cc(O)cc(O)c3c2=O)[C@H](O)[C@H]1OC(C)=O [Compound 6, myricetin 3-O-α-L-(3",5"-diacetyl-arabinofuranoside)] | –
4.9 ± 1.5 µM | CC(=O)OC[C@@H]1O[C@@H](Oc2c(-c3ccc(O)c(O)c3)oc3cc(O)cc(O)c3c2=O)[C@H](O)[C@H]1OC(C)=O [Compound 4, quercetin 3-O-α-L-(3",5"-diacetyl-arabinofuranoside)] | –
4.8 ± 0.8 µM | O=c1c(OC2OC(CO)C(O)C(O)C2O)c(-c2cc(O)c(O)c(O)c2)oc2cc(O)cc(O)c12 [Compound 9, myricetin 3-O-β-D-galactopyranoside] | –
6.6 ± 3.5 µM | Oc1cc(O)c2c(c1)OC(c1ccc(O)c(O)c1)C(O)C2 (single isomer, unassigned; (+)) [Compound 7, (+) catechin] | –
– | Oc1cc(O)c2c(c1)OC(c1cc(O)c(O)c(O)c1)C(O)C2 (single isomer, unassigned; (-)) [Compound 8, (-) gallocatechin] | IC50 [3, 4]: 1 ± 0.3 µM
4.2 ± 2.9 µM | O=c1c(O[C@@H]2O[C@@H](CO)[C@H](O)[C@H]2O)c(-c2cc(O)c(O)c(O)c2)oc2cc(O)cc(O)c12 [Compound 12, myricetin 3-O-α-L-arabinofuranoside] | –
– | O=c1c(O[C@@H]2O[C@@H](CO)[C@H](O)[C@H]2O)c(-c2ccc(O)c(O)c2)oc2cc(O)cc(O)c12 [Compound 13, quercetin 3-O-α-L-arabinofuranoside] | IC50 [3, 4]: 7.6 ± 0.9 µM
0.3 ± 0.3 µM | O=C(/C=C/c1ccc(O)c(O)c1)NCCc1ccc(O)cc1 [Compound 3, N-trans-caffeoyl-tyramine] | –
4.8 ± 1.9 µM | CC(=O)OC1C(CO)OC(Oc2c(-c3ccc(O)c(O)c3)oc3cc(O)cc(O)c3c2=O)C1O [Compound 5, quercetin 3-O-α-L-(3"-acetyl-arabinofuranoside)] | –
